# Laboratory results reported in patent US10966426B2, “Herbicidal compositions comprising phenylpyrimidines” (BASF SE, priority 2016, dated 2021).
# Legend:
# Format in all cases: in vivo
# Setaria viridis = experiment: greenhouse post-emergence treatment, SETVI; conditions: Setaria viridis, 480 h, SETVI, 20 DAT
# Method in brief: (§1)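 Greenhouse test in humus-containing (~3.0%) loamy sand at species-dependent temperatures of 10-25° C. or 20-35° C.; treatments applied in water. Damage rated visually after 2–4 weeks (0 = none, 100 = complete destruction or no emergence).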
# Lolium multiflorum = experiment: greenhouse post-emergence treatment, LOLMU; conditions: Lolium multiflorum, 480 h, LOLMU, 20 DAT
# Method in brief: as §1
# Echinocloa crus-galli = experiment: greenhouse post-emergence treatment, ECHCG; conditions: Echinochloa crus-galli, 480 h, pyridate solo 225 gai/ha, 20 DAT, ECHCG
# Method in brief: (§2)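 Visual herbicidal effect (0–100) recorded over a 2 to 4 week test period after foliar treatment at plant heights of 3 to 15 cm. Expected combination effects derived by the Colby formula from single-component effects X and Y.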
# Papaver rhoeas = experiment: greenhouse post-emergence treatment, PAPRH; conditions: Papaver rhoeas, 480 h, PAPRH, 20 DAT
# Method in brief: as §2
# Brachiaria decumbens = experiment: greenhouse post-emergence treatment, BRADC; conditions: Urochloa decumbens, 480 h, BRADC, 20 DAT
# Method in brief: (§3)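 Each species was grown separately and treated once it reached 3 to 15 cm, using actives suspended or emulsified in water. Plants were kept at 10-25° C. or 20-35° C., depending on species. Damage is a 0–100 rating taken during 2 to 4 weeks.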
# Poa annua = experiment: greenhouse post-emergence treatment, POAAN; conditions: Poa annua, 480 h, POAAN, 20 DAT
# Method in brief: as §3
# Bromus sterilis = experiment: greenhouse post-emergence treatment, BROST; conditions: Bromus sterilis, 480 h, BROST, 20 DAT
# Method in brief: as §1
# Alopecurus myosuroides = experiment: greenhouse post-emergence treatment, ALOMY; conditions: Alopecurus myosuroides, 480 h, ALOMY, 20 DAT
# Method in brief: as §1
# Polygonum convolvulus = experiment: greenhouse post-emergence treatment, POLCO; conditions: Fallopia convolvulus, 480 h, 20 DAT, POLCO
# Method in brief: as §2
# Ambrosia elatior = experiment: greenhouse post-emergence treatment, AMBEL; conditions: AMBEL, 20 DAT
# Method in brief: as §3
# [1] = solo pyridate (WP 45%) 112.5 gai/ha
# [2] = solo pyridate (WP 45%) 225 gai/ha
# [3] = solo pyridate (WP 45%) 450 gai/ha
# [4] = solo pyridate (WP 45%) 900 gai/ha
compound,measurement,setting,value
CCCCCCCCSC(=O)Oc1cc(Cl)nnc1-c1ccccc1 [pyridate],pest or weed control at 112.5 g/ha,Setaria viridis; [1],15%
same,pest or weed control at 225 g/ha,Setaria viridis; [2],25%
same,pest or weed control at 450 g/ha,Setaria viridis; [3],65%
same,inhibition at 225 g/ha,Setaria viridis; pyridate solo 225 gai/ha,25%
same,inhibition at 450 g/ha,Setaria viridis; pyridate solo 450 gai/ha,65%
same,inhibition at 900 g/ha,Setaria viridis; pyridate solo 900 gai/ha,80%
same,pest or weed control at 112.5 g/ha,Lolium multiflorum; [1],0%
same,pest or weed control at 225 g/ha,Lolium multiflorum; [2],20%
same,inhibition at 112.5 g/ha,Lolium multiflorum; pyridate solo 112.5 gai/ha,0%
same,inhibition at 225 g/ha,Lolium multiflorum; pyridate solo 225 gai/ha,20%
same,inhibition at 225 g/ha,Echinocloa crus-galli,30%
same,pest or weed control at 112.5 g/ha,Papaver rhoeas; [1],0%
same,pest or weed control at 225 g/ha,Papaver rhoeas; [2],10%
same,pest or weed control at 450 g/ha,Papaver rhoeas; [3],50%
same,pest or weed control at 900 g/ha,Papaver rhoeas; [4],70%
same,inhibition at 112.5 g/ha,Papaver rhoeas; pyridate solo 112.5 gai/ha,0%
same,inhibition at 225 g/ha,Papaver rhoeas; pyridate solo 225 gai/ha,10%
same,inhibition at 450 g/ha,Papaver rhoeas; pyridate solo 450 gai/ha,50%
same,inhibition at 900 g/ha,Papaver rhoeas; pyridate solo 900 gai/ha,70%
same,pest or weed control at 112.5 g/ha,Brachiaria decumbens; [1],0%
same,pest or weed control at 225 g/ha,Brachiaria decumbens; [2],20%
same,pest or weed control at 450 g/ha,Brachiaria decumbens; [3],20%
same,pest or weed control at 900 g/ha,Brachiaria decumbens; [4],50%
same,inhibition at 112.5 g/ha,Brachiaria decumbens; pyridate solo 112.5 gai/ha,0%
same,inhibition at 225 g/ha,Brachiaria decumbens; pyridate solo 225 gai/ha,20%
same,inhibition at 450 g/ha,Brachiaria decumbens; pyridate solo 450 gai/ha,20%
same,inhibition at 900 g/ha,Brachiaria decumbens; pyridate solo 900 gai/ha,50%
same,pest or weed control at 112.5 g/ha,Poa annua; [1],0%
same,pest or weed control at 225 g/ha,Poa annua; [2],0%
same,pest or weed control at 450 g/ha,Poa annua; [3],0%
same,pest or weed control at 112.5 g/ha,Bromus sterilis; [1],0%
same,pest or weed control at 225 g/ha,Bromus sterilis; [2],0%
same,pest or weed control at 900 g/ha,Bromus sterilis; [4],0%
same,pest or weed control at 900 g/ha,Alopecurus myosuroides; [4],20%
same,inhibition at 112.5 g/ha,Alopecurus myosuroides; pyridate solo 112.5 gai/ha,0%
same,inhibition at 225 g/ha,Alopecurus myosuroides; pyridate solo 225 gai/ha,0%
same,inhibition at 450 g/ha,Alopecurus myosuroides; pyridate solo 450 gai/ha,0%
same,inhibition at 900 g/ha,Alopecurus myosuroides; pyridate solo 900 gai/ha,20%
same,inhibition at 112.5 g/ha,Polygonum convolvulus; pyridate solo 112.5 gai/ha,40%
same,inhibition at 225 g/ha,Polygonum convolvulus; pyridate solo 225 gai/ha,50%
same,% activity,Ambrosia elatior; [1],0%
same,% activity,Ambrosia elatior; [2],10%
same,inhibition at 112.5 g/ha,"Ambrosia elatior; Ambrosia artemisiifolia, 480 h, pyridate solo 112.5 gai/ha",0%
same,inhibition at 225 g/ha,"Ambrosia elatior; Ambrosia artemisiifolia, 480 h, pyridate solo 225 gai/ha",10%
same,inhibition at 450 g/ha,"Ambrosia elatior; Ambrosia artemisiifolia, 480 h, pyridate solo 450 gai/ha",85%
